How the values were obtained:
[1] = tested on: HepG2 xenografts; test: HE staining of HepG2 xenografts; type: in vivo, Balb/c nude mice
Method: (§1) The HepG2 cells xenografts were established using the Balb/c nude mice (female, 7-week-old, 17–19 g, n = 30) (Shanghai Laboratory Animal Center, Shanghai Shi, China) were used to investigate the anti-hepatoma effect of 96. Animal experiments were reviewed and approved by the Binzhou Medical University Experimental Animal Committee. Briefly, HepG2 cells (1 × 10^7/0.2 ml PBS/mouse) were inoculated subcutaneously. Three days after the inoculation, the mice were randomly divided into five groups: the saline treated group (Control), 96 (0.2 mg/kg) group, 96 (1.0 mg/kg) treated group, 96 (5.0 mg/kg) treated group, and DOX (1.0 mg/kg) treated group. 96 were dissolved in saline containing 1% of DMSO and administered intraperitoneally every 2 d for 20 days. DOX was also administered intraperitoneally every 2 d for 20 d. The body weight and HepG2 xenografts volumes were recorded from the day of treatment, and xenografts volumes were calculated using the equation: tumour volume = length×(width)[2]×π/6. At the end of the experiment, mice were sacrificed and the xenografts were obtained for western blotting, HE staining and immunohistochemistry staining.
The HepG2 xenografts tissues were embedded using the paraffin, and sectioned for HE staining and immunohistochemistry staining. HE staining was performed routinely. The immunohistochemistry staining carried out as following. Briefly, the processed sections were incubated with the primary antibodies: Bcl-2 and TNF-α (NOVUS BIOLOGICALS) at 4 °C overnight. After washing, the anti-rabbit peroxidase-conjugated secondary antibody (Sigma-Aldrich, St. Louis, MO) was incubated for 1 h at RT. After washing with PBS, the cells were visualized using the 3,3'-diaminobenzidine (DAB) solution under the light microscope. The cell images were taken using a light microscopy (Olympus, Tokyo, Japan).

[2] = tested on: HepG2 xenografts; test: HepG2 xenografts growth in nude mice; type: in vivo, Balb/c nude mice
Method: as §1

[3] = tested on: TNF-α expression in HepG2 xenografts; test: Immunohistochemistry staining of TNF-α in HepG2 xenografts; type: in vivo, Balb/c nude mice; details: 96 5.0 mg/kg, DOX 1.0 mg/kg, versus model group
Method: as §1
The HepG2 xenografts tissues were embedded using the paraffin, and sectioned for HE staining and immunohistochemistry staining. HE staining was performed routinely. The immunohistochemistry staining carried out as following. […]

[4] = tested on: human breast cancer cells (MCF-7); test: Cytotoxicity, MTT assay, MCF-7; type: cell-based
Procedure, shortened: (§2)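 Seed 1 × 10^4 cells/well, 24 h; treat 24 h, 10 concentrations 0.01–50 μg/mL, final DMSO 0.1% v/v; MTT 4 h, 37 °C; DMSO solubilisation; OD 570 nm. Viability % vs untreated; IC50, n = 3.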

[5] = tested on: human normal hepatic cell line (LO2); test: Toxicity to normal cells, MTT assay, LO2; type: cell-based; details: Homo sapiens, 24 h
Procedure, shortened: as §2

[6] = tested on: Bcl-2 expression in HepG2 xenografts; test: Western blot, Bcl-2 in HepG2 xenografts; type: in vivo, Balb/c nude mice; details: 0.2, 1.0 and 5.0 mg/kg
Method: as §1
Western blotting was performed to detect the expression of Bcl-2, Bax and C-caspase-3 in HepG2 xenografts. Fresh HepG2 xenografts tissues were lysed and the obtained proteins were processed as the protein obtained from the HepG2 cells.

[7] = tested on: p-p65 in LPS-stimulated RAW264.7 cells; test: LPS-stimulated phosphorylation of p65 in RAW264.7 cells; type: cell-based; details: RAW264.7, 1.0, 2.0, 4.0 μM
Method: The HepG2 cells were treated with BAP 96 at different concentrations (1.0, 2.0, and 4.0 µM) for 3 h, and washed twice by PBS. The cells were lysed and the extracted proteins of cell lysates were separated by 10% SDS-PAGE gel electrophoresis, then transferred onto polyvinylidene fluorides membranes. The membranes were probed with antibodies and visualized using an enhanced chemiluminescence (ECL) detection kit.
It is known that NF-κB has been implicated in the crossroad of inflammation and cancer[25]^,[26]. In our previous study, some BAPs (such as 23 and 67) could inhibit NF-κB activation by inhibiting the phosphorylation of NF-κB (P65) and IκB[13]^,[14]. Herein, it is an urgent to resolve whether 96 has the same mechanism of action as 23 and 67. Therefore, the RAW264.7 cells were pretreated with LPS, and then treated with different concentrations (1.0, 2.0, 4.0 μM) of 96. […] Similarly, the HepG2 cells were pretreated with TNF-α, then treated with different concentrations (1.0, 2.0, and 4.0 μM) of 96.

Compound: CN1CC(=Cc2cccc(N=Cc3cc(Br)ccc3O)c2)C(=O)C(=Cc2ccccc2F)C1 [Compound 96]
- Fracted cells, HE staining ([1]; 96 5.0 mg/kg, DOX 1.0 mg/kg): a plenty of fracted cells
- Histopathological change of cell nucleus, HE staining ([1]; HepG2 xenografts, versus model group): made the HepG2 cell nucleus wrinkled
- Growth of HepG2 xenografts ([2]; 0.2 mg/kg intraperitoneally every 2 d for 20 days): slightly decreased the growth of HepG2 xenografts
- Growth of HepG2 xenografts ([2]; 1.0 mg/kg intraperitoneally every 2 d for 20 days): slightly decreased the growth of HepG2 xenografts
- Growth of HepG2 xenografts ([2]; 5.0 mg/kg intraperitoneally every 2 d for 20 days): significantly inhibited the growth of HepG2 xenografts
- TNF-α expression, immunohistochemistry [3]: significantly reduced
- IC50 ([4]; Homo sapiens, MCF7, MTT, 24 h): 2500 ± 200 nM
- MCF-7 SI (selectivity index) ([4]; quotient of IC50 towards LO2 cells): 8.0
- IC50 [5]: 19.9 ± 0.4 µM
- Expression of Bcl-2 in HepG2 xenografts [6]: dose-dependently decreased
- Expression level of LPS-induced p-p65 [7]: effectively decreased in a dose-dependent manner

From PMC6691761, “Potential multifunctional agents with anti-hepatoma and anti-inflammation properties by inhibiting NF-кB activation” (Journal of Enzyme Inhibition and Medicinal Chemistry, 2019)
